In publication PMC5339874, “Fluorene-9-bisphenol is anti-oestrogenic and may cause adverse pregnancy outcomes in mice” (Nature Communications, 2017):

Columns and labels:
Type in all cases: in vivo
[1] = tested on: CD-1 mice; experiment: Q-RT-PCR validation of the microarray; conditions: 50 mg/kg bw/d BHPF, 3 days
Procedure: The uteri, ovaries and livers were collected for total RNA isolation. Total RNA was isolated using Trizol reagent (Invitrogen) and further purified by NucleoSpin RNA Clean-up (Macherey-Nagel, Germany). Fluorescence labelling of the RNA samples was performed with a Jingxin cRNA linear amplification and labelling kit (CapitalBio) according to the manufacturer's instructions. The total RNA from each pool of tissue samples (a mixture from three animals) was used for microarray analysis. Cy3 dCTP was used to label the samples. The labelled products were added to SurePrint G3 mouse gene expression 8 × 60 K microarrays (Agilent) and incubated overnight at 42 °C. Following hybridization, the gene arrays were washed and scanned using an Agilent G2565CA Microarray Scanner. Glyceraldehyde 3-phosphate dehydrogenase (GAPDH) was used as an endogenous control to monitor the quality of the target preparation. The data were processed with feature extraction software (GeneSpring GX v.11; Agilent). The raw signals were log-transformed and normalized with the percentile shift normalization method. All arrays met the minimum Agilent QA/QC standards. To verify the data from the gene array, 14 genes were chosen as candidates for Q-RT-PCR. Primers are listed in Supplementary Table 4. GAPDH was used as an endogenous control. Amplification was performed using SYBR Green PCR master mix (Applied Biosystems) according to the manufacturer's instructions. The relative expression was quantified using the 2^(−ΔΔCt) method. The Gene Ontology (GO) and KEGG pathway enrichment analyses were performed with DAVID (refs [40], [41]).

[2] = Analysis of BHPF in human serum (GC–MS)
From the text: (§1) In China, college students usually undergo a physical examination before graduation. The volunteers in this study were senior students who were undergoing a physical examination in Beijing. Fifty male and 50 female healthy volunteers (mean age, 23.5±1.2 years) who habitually used plastic water bottles were randomly recruited to participate in this study in June 2015, after appropriate ethical approval was received from the Human Ethics Committee of the Peking University Peoples' Hospital. Each participant provided informed consent and volunteered to give one 10-ml random sample of blood. Fasting blood was collected at Peking University Hospital Medical Center with vacutainer blood collection device (Chengwu Yongkang Medical Products Ltd., China) between 8 and 9 h. […] The blood was collected directly into plain 10-ml glass vacutainer tubes and spun down 30 min later for serum preparation. The serum samples were stored in glass tubes at −80 °C until analysis. The samples were fortified with 5 ng of surrogate standard BHPF-d7, and the pH was adjusted to 6.5 with ammonium acetate. β-Glucuronidase/arylsulfatase (20 μl; Sigma-Aldrich, St Louis, MO) was added to the samples, and they were incubated at 37 °C for 20 h to allow deglucuronidation. […]

[3] = tested on: CD-1 mice; experiment: Uterotrophic assay, 3 days beginning on PND 21; conditions: combined with 400 μg kg^−1 bw d^−1 E2; 250 and 500 mg kg^−1 d^−1 groups; P<0.01
Procedure: […] […] Ten mice per group were used for the assays. Error bars indicate the s.d.'s from the average. *P<0.05 compared with the corresponding control. **P<0.01 compared with the corresponding control. Significance was tested by Fisher's LSD test.

[4] = Serum BHPF levels in mice after drinking-water exposure (GC–MS); conditions: for concentration at 10 days: female, CD-1, mouse, serum, oral, 124.35 ng l^−1 in drinking water
From the text: as §1
Mice with a maximal difference in body weight of 1 g were selected for the experiments and randomly assigned to either the treatment or control groups. […] The BHPF levels in the cooled boiled waters from Bottle A, Bottle B and the stainless steel electric water heater were determined by GC–MS. No BHPF was detected in the cooled boiled water from the stainless steel electric water heater. […] The relative uterine weight was calculated to evaluate the anti-uterotrophic activity. […] The serum BHPF levels were analysed by GC–MS using the same method as that for human serum. The gene expressions of sprr2a and sprr2b in the uteri were determined by Q-RT-PCR.

SMILES: Oc1ccc(C2(c3ccc(O)cc3)c3ccccc3-c3ccccc32)cc1 [BHPF, 9,9-bis(4-hydroxyphenyl)-fluorene]
- Actb gene expression change, liver, Q-RT-PCR [1]: 1.25
- Actb gene expression change, ovary, Q-RT-PCR [1]: 1.13
- Actb gene expression change, uterus, Q-RT-PCR [1]: 1.13
- Cfd gene expression change, liver, Q-RT-PCR [1]: -2.43
- Cfd gene expression change, ovary, Q-RT-PCR [1]: 2.28
- Cfd gene expression change, uterus, Q-RT-PCR [1]: -2.85
- Orm1 gene expression change, liver, Q-RT-PCR [1]: -1.41
- Orm1 gene expression change, ovary, Q-RT-PCR [1]: 2.19
- Orm1 gene expression change, uterus, Q-RT-PCR [1]: 5.17
- Spp1 gene expression change, liver, Q-RT-PCR [1]: -1.51
- Spp1 gene expression change, ovary, Q-RT-PCR [1]: -1.68
- Spp1 gene expression change, uterus, Q-RT-PCR [1]: 3.43
- Sprr1a gene expression change, liver, Q-RT-PCR [1]: 4.11
- Sprr1a gene expression change, ovary, Q-RT-PCR [1]: 1.16
- Sprr1a gene expression change, uterus, Q-RT-PCR [1]: -2.01
- Sprr2a2 gene expression change, liver, Q-RT-PCR [1]: 3.43
- Sprr2a2 gene expression change, ovary, Q-RT-PCR [1]: -8.94
- Sprr2a2 gene expression change, uterus, Q-RT-PCR [1]: -5.70
- Sprr2b gene expression change, liver, Q-RT-PCR [1]: 4.76
- Sprr2b gene expression change, ovary, Q-RT-PCR [1]: -9.65
- Sprr2b gene expression change, uterus, Q-RT-PCR [1]: -9.58
- Sprr2f gene expression change, liver, Q-RT-PCR [1]: 4.41
- Sprr2f gene expression change, ovary, Q-RT-PCR [1]: -5.28
- Sprr2f gene expression change, uterus, Q-RT-PCR [1]: -5.78
- Sprr2g gene expression change, liver, Q-RT-PCR [1]: 3.68
- Sprr2g gene expression change, ovary, Q-RT-PCR [1]: -5.70
- Sprr2g gene expression change, uterus, Q-RT-PCR [1]: -1.83
- chil3 gene expression change, liver, Q-RT-PCR [1]: -2.81
- chil3 gene expression change, ovary, Q-RT-PCR [1]: -3.92
- chil3 gene expression change, uterus, Q-RT-PCR [1]: -3.07
- cyp2e1 gene expression change, liver, Q-RT-PCR [1]: 4.06
- cyp2e1 gene expression change, ovary, Q-RT-PCR [1]: 1.69
- cyp2e1 gene expression change, uterus, Q-RT-PCR [1]: 4.00
- ll1f6 gene expression change, liver, Q-RT-PCR [1]: 2.66
- ll1f6 gene expression change, ovary, Q-RT-PCR [1]: -4.29
- ll1f6 gene expression change, uterus, Q-RT-PCR [1]: -4.66
- serp1d gene expression change, liver, Q-RT-PCR [1]: 2.48
- serp1d gene expression change, ovary, Q-RT-PCR [1]: 1.59
- serp1d gene expression change, uterus, Q-RT-PCR [1]: 30.91
- GAPDH gene expression change, liver, Q-RT-PCR ([1]; endogenous control): 1.00
- GAPDH gene expression change, ovary, Q-RT-PCR ([1]; endogenous control): 1.00
- GAPDH gene expression change, uterus, Q-RT-PCR ([1]; endogenous control): 1.00
- maximal serum BHPF level ([2]; human volunteers): 0.7 ng/mL
- mean serum BHPF level ([2]; volunteers with detectable BHPF): 0.34 ± 0.21 ng/mL
- effect on uterotrophic effect of E2 [3]: inhibited the uterotrophic effect of E2
- serum BHPF ([4]; 100 ng l^−1 BHPF group, 10 days): no serum BHPF was detected
- concentration at 10 days ([4]; serum BHPF level (mean), Bottle A group (124.35 ng l^−1 BHPF in water), after enzymatic hydrolysis): 1.21 ± 1.11 ng/mL
- concentration at 10 days ([4]; serum BHPF levels, range, Bottle A group): 0.36 to 2.7 ng/mL
